Source: paper PMC7144358, “Determination of KD025 (SLx-2119), a Selective ROCK2 Inhibitor, in Rat Plasma by High-Performance Liquid Chromatography-Tandem Mass Spectrometry and Its Pharmacokinetic Application” (Molecules, 2020)
Read-outs that look alike come from different tables or passages of the source. Each block holds one compound with its values, some of them ahead of it.

Assays:
[1] = Stability of stock solutions; format: physicochemical; conditions: KD025 200 ng/mL, IS 250 ng/mL; for Stock solution stability, concentration as % of fresh samples: room temperature for 4 h; for Stock solution stability: −20 °C for 4 weeks
Experimental: (§1) The stability of stock solutions of KD025 and IS was assessed by comparing the peak response of freshly prepared methanol/acetonitrile solution with that of the solution stored at room temperature for 4 hours or at −20 °C for 4 weeks of KD025 (200 ng/mL) and IS (250 ng/mL). The stability of QC samples in rat plasma at low, middle, high, and ultra-high concentrations was investigated in terms of short- and long-term stability, post-preparative stability, and freeze-thaw stability. Short-term stability was assessed by holding QC samples at the laboratory condition (room temperature) for 4 h, while QC samples were stored at −20 °C for 4 weeks to evaluate long-term stability. The post-preparative stability of processed samples stored in an autosampler (4 °C) was evaluated after 24 hours. Freeze-thaw stability was tested over three repeated cycles, in which QC samples were frozen at −20 °C and then thawed at room temperature. Peak area ratio changes of < 15% between stored and freshly prepared samples were considered as the criteria for the stability of samples [41].

[2] = Pharmacokinetic study after single oral and IV administration of KD025 to rats; format: in vivo, Sprague–Dawley rats; conditions: rat
Experimental: The feasibility of the developed LC/MS–MS method was examined by performing pharmacokinetic studies of KD025 in rats. Animal experiments were performed in accordance with the guide for the care and use of laboratory animals issued by the National Institutes of Health, as described previously. All experimental protocols were approved by the Animal Care and Use Committee of Gachon University (No. GIACUC-R2018014, approved on June 20th, 2018). Sprague–Dawley rats (8–9 weeks, 250–300 g, Nara Biotech, South Korea) were provided free access to food and water and maintained under 12 h light/dark cycles to adjust to the laboratory environment for a week before commencing the study. Rats were anesthetized by intramuscular injections (20 mg/kg) of Zoletil® (Vibrac, TX, USA) and cannulated by surgery to the femoral artery with polyethylene tubing (Clay Adams, NJ, USA) filled with heparinized saline (20 IU/mL) for blood sampling. After the rats had recovered from surgery, KD025 in a vehicle mixture (DMSO:Cremophor EL:PEG400:DDW = 5:10:40:50) was administered to rats at a dose of 5 mg/kg and 2 mg/kg for oral and IV administration, respectively. Blood samples (220 μL) were collected at 0 (blank), 1 (IV only), 5, 15, 30, 60, 120, 180, 240, 360, 480 and 1440 (oral only) min after KD025 administration and equal volumes of saline were injected for compensation of fluid loss. Plasma was separated from other components of blood by centrifugation at 14,000 rpm for 15 min at 4 °C and then was stored at −20 °C until analysis.
For sample preparation, 100 μL of IS in acetonitrile solution (250 ng/mL) was added to 50 μL of plasma samples, followed by vortex-mixing in 1 min for deproteinization. Samples were then centrifuged at 14,000 rpm for 15 min at 4 °C, and 100 μL aliquots of the supernatant were collected for analysis, as described in Section 3.2. The plasma peak concentration (Cmax) and time to reach Cmax (Tmax) were directly determined from each individual plasma concentration–time profile. Other pharmacokinetic parameters were calculated using WinNonlin® 3.1 software (Pharsight, Cary, NC, USA) by a non-compartmental method, as described previously. Results are presented as means ± standard deviations.

[3] = human, in vivo, po; cited from earlier work
[4] = set-up: method as in PMID 28389592; conditions: 38 patients with psoriasis, oral administration, phase 2; cited from earlier work
ROCK2 = test system: ROCK2; set-up: method as in PMID 26486225, PMID 21242007; conditions: cited from earlier work
[5] = set-up: method as in doi:10.1016/j.bbmt.2018.12.100, doi:10.1182/blood-2019-125986, doi:10.1097/01.HS9.0000564392.13730.a3; conditions: 54 patients, phase 2a; cited from earlier work
[6] = Stability of KD025 in rat plasma under storage/handling conditions; format: in vitro ADME; conditions: for Stability (%), auto-sampler stability (24 h at 4 °C): processed rat plasma sample; for Stability (%), auto-sampler stability (24 h at 4 °C) / Stability (%), freeze-thaw stability (3 cycles) / Stability (%), long-term stability (4 weeks at −20 °C) / Stability (%), short-term stability (4 h at room temperature): n = 3
Experimental: as §1

[7] = Sprague-Dawley, plasma, IV 2 mg/kg, n = 5
[8] = Sprague-Dawley, plasma, PO 5 mg/kg, n = 5
[9] = rat plasma, UHQC 8000 ng/mL diluted 10 times to 800 ng/mL

Stock solution stability, concentration as % of fresh samples [1]: 100.0%
Stock solution stability [1]: 91.1%
Structure (SMILES): CC1=C(C(=O)Nc2cc3cn[nH]c3cc2F)C(c2ccc(C(F)(F)F)cc2)CC(=O)N1 (stereo not drawn) [IS]

AUC(0-t) [2, 7]: 872 ng·h/mL
MRT [2, 7]: 0.773 h
clearance [2, 7]: 38.9 ± 6.2 mL/min/kg
half-life [2, 7]: 88.3 ± 19.9 min
Cmax ([2]; Sprague-Dawley, plasma, IV 2 mg/kg, n = 5, C0 estimated by noncompartmental analysis, read-out: Cmax (C0)): 4420 ± 1210 ng/mL
Vd ([2]; Sprague-Dawley, plasma, IV 2 mg/kg, n = 5, read-out: Vss): 1.78 ± 0.287 L/kg
AUC(0-t) [2, 8]: 763 ng·h/mL
MRT [2, 8]: 7.91 h
half-life [2, 8]: 353 ± 169 min
Tmax ([2]; Sprague-Dawley, plasma, PO 5 mg/kg, n = 5, mean ± SD): 2.2 h
Cmax ([2]; Sprague-Dawley, plasma, PO 5 mg/kg, n = 5, mean ± SD, read-out: Cmax): 128 ± 74.7 ng/mL
AUC(0-inf) ([2]; Sprague-Dawley, plasma, iv, 2 mg/kg, IV 2 mg/kg, n = 5): 812 ng·h/mL
bioavailability ([2]; Sprague-Dawley, plasma, oral, PO 5 mg/kg vs IV 2 mg/kg, AUC∞PO/AUC∞IV × 100): ~37%
AUC(0-inf) ([2]; Sprague-Dawley, plasma, po, 5 mg/kg, PO 5 mg/kg, n = 5): 877 ng·h/mL
AUClast to AUC∞ ratio ([2]; IV 2 mg/kg): 99.2%
AUC∞ /Dose ([2]; IV 2 mg/kg, n = 5): 26.3 ± 5.0 μg∙min/mL/[mg/kg]
AUC∞ ([2]; IV 2 mg/kg, n = 5, 2 mg/kg): 52.7 ± 10.0 µg·min/mL
AUC∞ /Dose ([2]; PO 5 mg/kg, n = 5): 9.7 ± 2.4 μg∙min/mL/[mg/kg]
AUC∞ ([2]; PO 5 mg/kg, n = 5, 5 mg/kg): 48.7 ± 11.8 µg·min/mL
AUClast to AUC∞ ratio ([2]; oral 5 mg/kg): 94.0%
Stock solution stability, concentration as % of fresh samples [1]: 89.6%
Stock solution stability [1]: 95.4%
Stability (%), auto-sampler stability (24 h at 4 °C) ([6]; 1 ng/mL): 112.1 ± 2.0%
Stability (%), auto-sampler stability (24 h at 4 °C) ([6]; 3 ng/mL): 100.2 ± 0.2%
Stability (%), auto-sampler stability (24 h at 4 °C) ([6]; 40 ng/mL): 102.0 ± 1.3%
Stability (%), auto-sampler stability (24 h at 4 °C) ([6]; 400 ng/mL): 98.1 ± 2.1%
Stability (%), auto-sampler stability (24 h at 4 °C) ([6]; 800 ng/mL): 101.1 ± 0.8%
Stability (%), auto-sampler stability (24 h at 4 °C) ([6]; UHQC 8000 ng/mL diluted 10 times to 800 ng/mL): 103.3 ± 3.2%
Short-term stability, peak area ratio vs freshly prepared samples ([6]; rat plasma at room temperature (4 h), range over QC and UHQC concentrations): 92.8–100.5%
Long-term stability, peak area ratio vs freshly prepared samples ([6]; rat plasma at −20 °C (4 weeks), range over QC and UHQC concentrations): 95.8–109.9%
Stability (%), freeze-thaw stability (3 cycles) ([6]; rat plasma, 1 ng/mL): 114.1 ± 1.5%
Stability (%), long-term stability (4 weeks at −20 °C) ([6]; rat plasma, 1 ng/mL): 95.8 ± 3.7%
Stability (%), short-term stability (4 h at room temperature) ([6]; rat plasma, 1 ng/mL): 92.8 ± 5.0%
Stability (%), freeze-thaw stability (3 cycles) ([6]; rat plasma, 3 ng/mL): 108.7 ± 3.4%
Stability (%), long-term stability (4 weeks at −20 °C) ([6]; rat plasma, 3 ng/mL): 104.9 ± 6.0%
Stability (%), short-term stability (4 h at room temperature) ([6]; rat plasma, 3 ng/mL): 93.0 ± 1.3%
Stability (%), freeze-thaw stability (3 cycles) ([6]; rat plasma, 40 ng/mL): 110.1 ± 6.5%
Stability (%), long-term stability (4 weeks at −20 °C) ([6]; rat plasma, 40 ng/mL): 106.3 ± 3.0%
Stability (%), short-term stability (4 h at room temperature) ([6]; rat plasma, 40 ng/mL): 94.0 ± 1.6%
Stability (%), freeze-thaw stability (3 cycles) ([6]; rat plasma, 400 ng/mL): 103.3 ± 3.3%
Stability (%), long-term stability (4 weeks at −20 °C) ([6]; rat plasma, 400 ng/mL): 109.9 ± 2.2%
Stability (%), short-term stability (4 h at room temperature) ([6]; rat plasma, 400 ng/mL): 99.0 ± 0.6%
Stability (%), freeze-thaw stability (3 cycles) ([6]; rat plasma, 800 ng/mL): 109.3 ± 5.3%
Stability (%), long-term stability (4 weeks at −20 °C) ([6]; rat plasma, 800 ng/mL): 106.4 ± 1.1%
Stability (%), short-term stability (4 h at room temperature) ([6]; rat plasma, 800 ng/mL): 93.6 ± 1.8%
Stability (%), freeze-thaw stability (3 cycles) [6, 9]: 114.3 ± 2.2%
Stability (%), long-term stability (4 weeks at −20 °C) [6, 9]: 98.6 ± 0.5%
Stability (%), short-term stability (4 h at room temperature) [6, 9]: 100.5 ± 2.5%
Peak area ratio vs fresh samples after three freeze-thaw cycles ([6]; rat plasma, range over five QC and UHQC concentrations): 103.3–114.3%
Post-preparative stability, peak area ratio ([6]; samples stored in autosampler at 4 °C (24 h), range over QC and UHQC concentrations): 98.1–112.1%
Structure (SMILES): CC(C)NC(=O)COc1cccc(-c2nc(Nc3ccc4[nH]ncc4c3)c3ccccc3n2)c1 [KD025, 2-(3-(4-((1H-Indazol-5-yl)amino)quinazolin-2-yl)phenoxy)-N-isopropylacetamide]
Tolerability [3]: well tolerated and produced no significant adverse events, including cardiovascular side effects
Clinical effect in psoriasis [4]: reduced psoriasis area, normalized skin pathology, and down-regulated serum IL-17 and IL-23 cytokines
Tolerability [4]: well tolerated, with no serious side effects
Selectivity for ROCK2 than ROCK1 (ROCK2): 100 fold
Clinical response in chronic graft-versus-host disease [5]: clinically meaningful responses with little toxicity and reductions in corticosteroid doses
